Measurements as given in patent US11827628B2, “Compositions and methods for inhibition of the JAK pathway” (Rigel Pharmaceuticals, Inc., priority 2005, dated 2023).
Where two headings read alike, the source gives them in different places. One block for each compound: values may come before it.

Columns and labels:
Primary human T-cells = assay: Primary Human T-Cell Proliferation Assay Stimulated with IL-2 (CellTiter-Glo); type: cell-based; details: read-out: IC50, Example 42
How it was run: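 Peripheral blood T-cells pre-activated with anti-CD3/anti-CD28 and IL-2 were washed free of IL-2, then cultured with compound plus IL-2 for 72 hours at 37° C, duplicate wells. Viability read as ATP by CellTiter-Glo luminescence; IC50 reported.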

[1] = tested on: IL-4 stimulated expression of CD23 in human Ramos B cells (JAK-1 and JAK-3); assay: Assay for Ramos B-Cell Line Stimulated with IL-4 (CD23 upregulation, FACS); type: cell-based; details: read-out: IC50, Example 41
How it was run: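 Human Ramos B cells in RPMI with 5% serum were pre-incubated with compound or DMSO for 1 h at 37 °C, then stimulated with IL-4 at a final 50 units/mL for 20-24 h. CD23 upregulation was measured by anti-CD23-PE staining and flow cytometry, and IC50 values were calculated.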

[2] = Homo sapiens, T-cell, primary human T-cells stimulated with IL-2, proliferation
[3] = Homo sapiens, Ramos, Ramos B cells stimulated with IL-4, CD23 expression by FACS
[4] = Homo sapiens, T-cell, primary human T-cell proliferation stimulated with IL-2
[5] = Homo sapiens, Ramos, Ramos B-cell line stimulated with IL-4, CD23 expression by FACS
[6] = primary human T-cells stimulated with IL-2, proliferation
[7] = Ramos B cells stimulated with IL-4, CD23 expression by FACS
[8] = primary human T-cell proliferation stimulated with IL-2
[9] = Ramos B-cell line stimulated with IL-4, CD23 expression by FACS

IC50 [1, 3]: 452 nM
Compound: NS(=O)(=O)c1cc(Nc2ncc(F)c(Nc3ccc(OC(F)(F)F)cc3)n2)ccc1Cl [VI-42, N2-(3-Aminosulfonyl-4-chlorophenyl)-5-fluoro-N4-(4-trifluoromethoxyphenyl)-2,4-pyrimidinediamine]
IC50 (Primary human T-cells; [2]): 6170 nM

IC50 [1, 5]: 4400 nM
Compound: NC(=O)NCc1ccc(Nc2nc(Nc3ccc(S(N)(=O)=O)cc3)ncc2F)cc1 [III-32, N4-(4-Aminocarbonylaminomethylphenyl)-N2-(4-aminosulfonylphenyl)-5-fluoro-2,4-pyrimidinediamine]
IC50 (Primary human T-cells; [4]): 3320 nM

IC50 [1, 3]: 164 nM
Compound: C#CCOc1ccc(Nc2nc(Nc3ccc(C)c(S(N)(=O)=O)c3)ncc2F)cc1C [VI-58, N2-(3-Aminosulfonyl-4-methylphenyl)-5-fluoro-N4-[3-methyl-4-(prop-2-ynyloxy)phenyl]-2,4-pyrimidinediamine]
IC50 (Primary human T-cells; [2]): 724 nM

IC50 [1, 7]: 541 nM
Compound: CC1(C)Oc2cc(Nc3nc(Nc4cccc(S(N)(=O)=O)c4)ncc3F)cnc2NC1=O [VII-51, N2-(3-Aminosulfonylphenyl)-N4-[2,2-dimethyl-3-oxo-4H-5-pyrid[1,4]oxazin-7-yl]-5-fluoro-2,4-pyrimidinediamine]
IC50 (Primary human T-cells; [6]): 1790 nM

IC50 [1, 5]: 38.8 nM
Compound: Cc1ccc(Nc2ncc(F)c(Nc3ccc(OC4CCN(C)CC4)c(Cl)c3)n2)cc1S(N)(=O)=O [II-8, N2-(3-Aminosulfonyl-4-methylphenyl)-5-fluoro-N4-{3-chloro-4-[(1-methylpiperidin-4-yl)oxy]phenyl}-2,4-pyrimidinediamine]
IC50 (Primary human T-cells; [4]): 564 nM

IC50 [1, 5]: 157 nM
Compound: CN(C)C(=O)OCCc1ccc(Nc2nc(Nc3ccc(Cl)c(S(N)(=O)=O)c3)ncc2F)cc1 [III-58, N2-(3-Aminosulfonyl-4-chlorophenyl)-N4-{4-[2-(dimethylaminocarbonyloxy)ethyl]phenyl}-5-fluoro-2,4-pyrimidinediamine]
IC50 (Primary human T-cells; [4]): 1260 nM

IC50 [1, 7]: 286 nM
Compound: CNC(=O)N1CCCc2cc(Nc3nc(Nc4cccc(S(N)(=O)=O)c4)ncc3F)ccc21 [VII-20, N2-(3-Aminosulfonylphenyl)-5-fluoro-N4-[1-(methylaminocarbonyl)-1,2,3,4-tetrahydroquin-6-yl]-2,4-pyrimidinediamine]
IC50 (Primary human T-cells; [6]): 698 nM

IC50 [1, 5]: 46.9 nM
Compound: NS(=O)(=O)c1ccc(Nc2ncc(F)c(Nc3ccc(Oc4cccnc4)cc3)n2)cc1 [II-14, N2-(4-Aminosulfonylphenyl)-5-fluoro-N4-[4-(3-pyridyloxy)phenyl]-2,4-pyrimidinediamine]
IC50 (Primary human T-cells; [4]): 579 nM

IC50 [1, 5]: 150 nM
Compound: CNC(=O)OCCc1ccc(Nc2nc(Nc3ccc(C)c(S(N)(=O)=O)c3)ncc2F)cc1 [III-59, N2-(3-Aminosulfonyl-4-methylphenyl)-5-fluoro-N4-{4-[2-(methylaminocarbonyloxy)ethyl]phenyl}-2,4-pyrimidinediamine]
IC50 (Primary human T-cells; [4]): 458 nM

IC50 [1, 7]: 315 nM
Compound: NS(=O)(=O)c1cc(Nc2ncc(F)c(Nc3ccc(OCC(F)(F)F)cc3)n2)ccc1Cl [VI-48, N2-(3-Aminosulfonyl-4-chlorophenyl)-5-fluoro-N4-(4-trifluoromethylmethyleneoxyphenyl)-2,4-pyrimidinediamine]
IC50 (Primary human T-cells; [6]): 2240 nM

IC50 [1, 3]: 49.8 nM
Compound: COc1ccc(Nc2nc(Nc3ccc(OC)c(S(N)(=O)=O)c3)ncc2F)cc1Cl [VI-29, N2-(3-Aminosulfonyl-4-methoxyphenyl)-N4-(3-chloro-4-methoxyphenyl)-5-fluoro-2,4-pyrimidinediamine]
IC50 (Primary human T-cells; [2]): 362 nM

IC50 [1, 9]: 120 nM
Compound: COc1cc(Nc2ncc(F)c(Nc3cccc(OCC#N)c3)n2)ccc1S(N)(=O)=O [Compound I-7, N2-(4-Aminosulfonyl-3-methoxy)phenyl-N4-(3-cyanomethoxy)phenyl-5-fluoro-2,4-pyrimidinediamine]
IC50 (Primary human T-cells; [8]): 502 nM

IC50 [1, 5]: 211 nM
Compound: C=CC(=O)NCc1ccc(Nc2nc(Nc3ccc(C)c(S(N)(=O)=O)c3)ncc2F)cc1 [III-46, N4-(4-Acrylamidomethylphenyl)-N2-(3-aminosulfonyl-4-methylphenyl)-5-fluoro-2,4-pyrimidinediamine]
IC50 (Primary human T-cells; [4]): 1050 nM

IC50 [1, 9]: 443 nM
Compound: CCN(CC)CCNS(=O)(=O)c1ccc(Nc2ncc(F)c(Nc3ccc(Cn4ccnc4)cc3)n2)cc1 [III-84, N2-[4-(2-N,N-Diethylaminoethyl)aminosulfonylphenyl)-5-fluoro-N4-[4-(1-imidazolylmethyl)phenyl]-2,4-pyrimidinediamine]
IC50 (Primary human T-cells; [8]): 1900 nM

IC50 [1, 9]: 205 nM
Compound: Cc1cc(COc2ccc(Nc3nc(Nc4ccc(S(N)(=O)=O)cc4)ncc3F)cc2C)no1 [Compound I-240, N2-(4-Aminosulfonylphenyl)-5-fluoro-N4-[3methyl-4-(5-methylisoxazol-3-yl)methyleneoxyphenyl]-2,4-pyrimidinediamine]
IC50 (Primary human T-cells; [8]): 5260 nM

IC50 [1, 5]: 61.2 nM
Compound: CNC(=O)COc1ccc(Nc2nc(Nc3ccc(C)c(S(N)(=O)=O)c3)ncc2F)cc1Cl [Compound I-148, N2-(3-Aminosulfonyl-4-methylphenyl)-N4-(3-chloro-4-methylaminocarbonylmethoxyphenyl)-5-fluoro-2,4-pyrimidinediamine]
IC50 (Primary human T-cells; [4]): 240 nM

IC50 [1, 3]: 136 nM
Compound: NS(=O)(=O)c1ccc(Nc2ncc(F)c(Nc3ccc(Cl)c(Cl)c3)n2)cc1 [VI-109, N2-(4-Aminosulfonylphenyl)-N4-(3,4-dichlorophenyl)-5-fluoro-2,4-pyrimidinediamine]
IC50 (Primary human T-cells; [2]): 2870 nM

IC50 [1, 7]: 302 nM
Compound: CNS(=O)(=O)c1cc(Nc2ncc(F)c(Nc3ccc(Cn4cncn4)cc3)n2)ccc1C [III-102, 5-Fluoro-N2-[3-(N-methylaminosulfony)-4-methylphenyl]-N4-{4-[1-(1,2,4-thazolyl)methyl]phenyl}-2,4-pyrimidinediamine]
IC50 (Primary human T-cells; [6]): 486 nM

IC50 [1, 7]: 3330 nM
Compound: NS(=O)(=O)c1ccc(Nc2ncc(F)c(Nc3ccc(Cn4ccnn4)cc3)n2)cc1 [III-96]
IC50 (Primary human T-cells; [6]): 2190 nM

IC50 [1, 5]: 155 nM
Compound: Cc1cnc(Nc2ccc(Cl)c(S(N)(=O)=O)c2)nc1Nc1ccc(OCC(=O)N(C)C)c(F)c1 [Compound I-142, N2-(3-Aminosulfonyl-4-chlorophenyl)-N4-(4-dimethylaminocarbonylmethoxy-3-fluorophenyl)-5-methyl-2,4-pyrimidinediamine]
IC50 (Primary human T-cells; [4]): 854 nM

IC50 [1, 5]: 154 nM
Compound: Cc1cc(Nc2nc(Nc3ccc(S(C)(=O)=O)c(N)c3)ncc2F)ccc1OCc1ccccn1 [Compound I-168, N2-(3-Amino-4-methylsulfonylphenyl)-5-fluoro-N4-[(4-((pyridin-2-yl)methoxy)-3-methylphenyl)]-2,4-pyrimidinediamine]
IC50 (Primary human T-cells; [4]): 1180 nM

IC50 [1, 9]: 858 nM
Compound: N2-(3-Aminocarbonyl-5-methylphenyl)-5-fluoro-N2-[4-(1H-pyrazol-5-yl)amidophenyl)-2,4-pyrimidinediamine [II-22]
IC50 (Primary human T-cells; [8]): 7490 nM

IC50 [1, 7]: 272 nM
Compound: NS(=O)(=O)c1cccc(Nc2ncc(F)c(Nc3ccc(OC(F)(F)F)cc3)n2)c1 [VI-33, N2-(3-aminosulfonylphenyl)-5-fluoro-N4-(4-trofluoromethoxyphenyl)-2,4-pyrimidinediamine]
IC50 (Primary human T-cells; [6]): 660 nM

IC50 [1, 9]: 127 nM
Compound: Cc1noc(COc2cccc(Nc3nc(Nc4ccc(S(N)(=O)=O)cc4)ncc3F)c2)n1 [Compound I-253, N2-(4-Aminosulfonylphenyl)-5-fluoro-N4-[3-(3-methyl-1,2,4-oxadiazol-5-yl)methyleneoxyphenyl]-2,4-pyrimidinediamine]
IC50 (Primary human T-cells; [8]): 2560 nM

IC50 [1, 3]: 212 nM
Compound: NS(=O)(=O)c1ccc(Nc2ncc(F)c(Nc3ccc(CCCF)cc3)n2)cc1 [VI-82, N2-(4-Aminosulfonylphenyl)-5-fluoro-N4-[4-(3-fluoropropyl)phenyl]-2,4-pyrimidinediamine]
IC50 (Primary human T-cells; [2]): 1630 nM

IC50 [1, 5]: 144 nM
Compound: NC(=O)OCCc1ccc(Nc2nc(Nc3ccc(Cl)c(S(N)(=O)=O)c3)ncc2F)cc1 [III-55, N4-{4-[2-(Aminocarbonyloxy)ethyl]phenyl}-N2-(3-aminosulfonyl-4-chlorophenyl)-5-fluoro-2,4-pyrimidinediamine]
IC50 (Primary human T-cells; [4]): 973 nM

IC50 [1, 3]: 73.9 nM
Compound: COC(=O)c1ccc(Nc2nc(Nc3ccc(C)c(S(N)(=O)=O)c3)ncc2F)s1 [IX-46, N2-(3-Aminosulfonyl-4-methylphenyl)-5-fluoro-N4-(5-methoxycarbonyl-thiophene-2-yl)-2,4-pyrimidinediamine]
IC50 (Primary human T-cells; [2]): 1390 nM

IC50 [1, 7]: 772 nM
Compound: CC1(C)Oc2ccc(Nc3nc(Nc4cccc(S(N)(=O)=O)c4)ncc3N)cc2NC1=O [VII-39, 5-Amino-N2-(3-amionsulfonylphenyl)-N4-(2,2-dimethyl-3-oxo-4H-benz[1,4]oxazin-6-yl)-2,4-pyrimidinediamine]
IC50 (Primary human T-cells; [6]): 919 nM

IC50 [1, 9]: 258 nM
Compound: Cc1cc(CCC#N)ccc1Nc1nc(Nc2cccc(S(N)(=O)=O)c2)ncc1F [III-24, N2-(3-Aminosulfonylphenyl)-N4-(4-cyanoethylene-2-methylphenyl)-5-fluoro-2,4-pyrimidinediamine]
IC50 (Primary human T-cells; [8]): 1620 nM

Compound: Cc1nccn1Cc1ccc(Nc2nc(Nc3ccc(S(N)(=O)=O)cc3)ncc2F)cc1 [III-92, N2-(4-Aminosulfonylphenyl)-5-fluoro-N4-[4-(2-methyl-1-imidazolylmethyl)phenyl]-2,4-pyrimidinediamine]
IC50 (Primary human T-cells; [6]): 1900 nM | IC50 [1, 7]: 323 nM

IC50 [1, 5]: 18300 nM
Compound: Cc1ccc(Nc2ncc(F)c(Nc3ccc(Oc4ccncc4)cc3)n2)cc1S(N)(=O)=O [II-16, N2-(3-Aminosulfonyl-4-methylphenyl)-5-fluoro-N4-[4-(4-pyridyloxy)phenyl]-2,4-pyrimidinediamine]
IC50 (Primary human T-cells; [4]): 3720 nM
